Patent publication US9139557B2, “Carboxamide compounds and their use as calpain inhibitors” (Abbott GmbH & Co. KG, priority 2006, dated 2015)

Tests used:
Format in all cases: biochemical
[1] = biological target: T1, cathepsin B (Homo sapiens, UniProt P07858); experiment: Cathepsin B enzyme inhibition in vitro (kinetic fluorescence assay); conditions: Ki(cathepsin B)/Ki(calpain) ratio
T1 construct: cathepsin B—isolated from human liver; purchased Calbiochem 219362; host or cells: human liver (tissue isolate)
Summary of the method: (§1)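 Kinetic fluorescence (ex 390/em 460 nm), room temperature: calpain-I (human erythrocyte, 20 nM) with 100 µM Suc-Leu-Tyr-AMC, imidazole/CaCl2 pH 7.3; cathepsin B (liver, 0.25 nM), 100 µM Z-Phe-Arg-AMC; L (liver, 1 nM), 2 µM Z-Phe-Arg-AMC; S (recombinant, 0.5 nM), 20 µM Z-Val-Val-Arg-AMC; cathepsins in MES/EDTA/cysteine pH 6.0. Apparent Ki via Cheng-Prusoff, 2–4 curves averaged.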

[2] = biological target: T2, cathepsin L (Homo sapiens, UniProt P07711); experiment: Cathepsin L enzyme inhibition in vitro (kinetic fluorescence assay); conditions: Ki(cathepsin L)/Ki(calpain) ratio
T2 construct: cathepsin L—isolated from human liver; purchased Calbiochem 219402; host or cells: human liver (tissue isolate)
T2 sequence (P07711 114-333): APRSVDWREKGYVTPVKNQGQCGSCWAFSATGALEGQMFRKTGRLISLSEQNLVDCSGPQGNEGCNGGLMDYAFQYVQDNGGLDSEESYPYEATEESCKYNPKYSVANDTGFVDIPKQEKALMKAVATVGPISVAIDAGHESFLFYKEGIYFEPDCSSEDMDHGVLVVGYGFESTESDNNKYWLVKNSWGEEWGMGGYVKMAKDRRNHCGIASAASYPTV
Summary of the method: as §1

[3] = biological target: T3, cathepsin S (Homo sapiens, UniProt P25774); experiment: Cathepsin S enzyme inhibition in vitro (kinetic fluorescence assay); conditions: Ki(cathepsin S)/Ki(calpain) ratio
T3 construct: purchased Calbiochem 219343; host or cells: E. coli
T3 sequence (P25774 115-331): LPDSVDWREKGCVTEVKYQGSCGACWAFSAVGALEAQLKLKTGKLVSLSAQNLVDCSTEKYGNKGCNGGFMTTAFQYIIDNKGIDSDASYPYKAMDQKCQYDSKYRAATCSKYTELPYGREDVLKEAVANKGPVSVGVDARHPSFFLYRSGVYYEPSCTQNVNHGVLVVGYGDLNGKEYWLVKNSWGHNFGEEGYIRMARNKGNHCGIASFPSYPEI
Summary of the method: as §1

[4] = biological target: T4, cathepsin K (Homo sapiens, UniProt P43235); experiment: Cathepsin K enzyme inhibition in vitro (kinetic fluorescence assay); conditions: Ki(cathepsin K)/Ki(calpain) ratio
T4 construct: purchased Calbiochem 342001; host or cells: E. coli
T4 sequence (P43235 115-329): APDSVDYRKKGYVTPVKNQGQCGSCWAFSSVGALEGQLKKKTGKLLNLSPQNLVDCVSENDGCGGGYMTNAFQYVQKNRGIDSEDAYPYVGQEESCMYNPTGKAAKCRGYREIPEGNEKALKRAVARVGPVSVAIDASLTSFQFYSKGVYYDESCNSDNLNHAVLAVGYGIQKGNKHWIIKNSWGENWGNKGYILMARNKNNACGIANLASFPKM

**Q.** Which “Sel cat. B” value [1] does the source give for `COc1ccc(-c2ccn(-c3ncccc3C(=O)NC(Cc3ccccc3)C(=O)C(N)=O)n2)c(OC)c1` (stereo not shown) [Example 117, N-[3-Amino-2,3-dioxo-1-(phenylmethyl)propyl]-2-{3-[2,4-bis(methyloxy)phenyl]-1H-pyrazol-1-yl}pyridine-3-carboxamide] here?
**A.** ++ (++ means a Ki(cathepsin B)/Ki(calpain) ratio of ≧30)

**Q.** What about the “Sel cat. L” value [2] of the same compound?
**A.** ++ (++ means a Ki(cathepsin L)/Ki(calpain) ratio of ≧50)

**Q.** What about the “Sel cat. S” value [3] of the same compound?
**A.** ++ (++ means a Ki(cathepsin S)/Ki(calpain) ratio of ≧100)

**Q.** What about the “Sel cat. K” value [4] of the same compound?
**A.** ++ (++ means a Ki(cathepsin K)/Ki(calpain) ratio of ≧30)

**Q.** How did the “Sel cat. B” value [1] turn out when `NC(=O)C(=O)C(Cc1ccccc1)NC(=O)c1cccnc1-n1ccc(-c2cccc3c2OC(F)(F)O3)n1` (stereo not shown) [Example 119, N-[3-Amino-2,3-dioxo-1-(phenylmethyl)propyl]-2-[3-(2,2-difluoro-1,3-benzodioxol-4-yl)-1H-pyrazol-1-yl]pyridine-3-carboxamide] was run?
**A.** ++ (++ means a Ki(cathepsin B)/Ki(calpain) ratio of ≧30)

**Q.** What about the “Sel cat. L” value [2] of the same compound?
**A.** ++ (++ means a Ki(cathepsin L)/Ki(calpain) ratio of ≧50)

**Q.** What about the “Sel cat. S” value [3] of the same compound?
**A.** ++ (++ means a Ki(cathepsin S)/Ki(calpain) ratio of ≧100)

**Q.** And the “Sel cat. K” value [4]?
**A.** ++ (++ means a Ki(cathepsin K)/Ki(calpain) ratio of ≧30)

**Q.** Which “Sel cat. B” value [1] does the source give for `NC(=O)C(=O)C(Cc1ccc(F)cc1)NC(=O)c1cccnc1-n1ccc(-c2ccc(Cl)cc2Cl)n1` (stereo not shown) [Example 114, N-{-3-Amino-1-[(4-fluorophenyl)methyl]-2,3-dioxopropyl}-2-[3-(2,4-dichlorophenyl)-1H-pyrazol-1-yl]pyridine-3-carboxamide] here?
**A.** ++ (++ means a Ki(cathepsin B)/Ki(calpain) ratio of ≧30)

**Q.** And the “Sel cat. L” value [2]?
**A.** ++ (++ means a Ki(cathepsin L)/Ki(calpain) ratio of ≧50)

**Q.** What about the “Sel cat. S” value [3] of the same compound?
**A.** ++ (++ means a Ki(cathepsin S)/Ki(calpain) ratio of ≧100)

**Q.** What about the “Sel cat. K” value [4] of the same compound?
**A.** ++ (++ means a Ki(cathepsin K)/Ki(calpain) ratio of ≧30)

**Q.** Which “Sel cat. B” value [1] does the source give for `NC(=O)C(=O)C(Cc1ccccc1)NC(=O)c1cccnc1-n1ccc(-c2ccc(F)cc2Cl)n1` (stereo not shown) [Example 71, N-(3-Amino-1-benzyl-2,3-dioxopropyl)-2-[3-(2-chloro-4-fluorophenyl)-1H-pyrazol-1-yl]nicotinamide] here?
**A.** ++ (++ means a Ki(cathepsin B)/Ki(calpain) ratio of ≧30)

**Q.** And the “Sel cat. L” value [2]?
**A.** ++ (++ means a Ki(cathepsin L)/Ki(calpain) ratio of ≧50)

**Q.** And the “Sel cat. S” value [3]?
**A.** ++ (++ means a Ki(cathepsin S)/Ki(calpain) ratio of ≧100)

**Q.** What about the “Sel cat. K” value [4] of the same compound?
**A.** ++ (++ means a Ki(cathepsin K)/Ki(calpain) ratio of ≧30)

**Q.** Which “Sel cat. B” value [1] does the source give for `COc1ccccc1-c1ccn(-c2ncccc2C(=O)NC(Cc2ccccc2)C(=O)C(N)=O)n1` (stereo not shown) [Example 90, N-[3-Amino-2,3-dioxo-1-(phenylmethyl)propyl]-2-{3-[2-(methyloxy)phenyl]-1H-pyrazol-1-yl}pyridine-3-carboxamide] here?
**A.** ++ (++ means a Ki(cathepsin B)/Ki(calpain) ratio of ≧30)

**Q.** And the “Sel cat. L” value [2]?
**A.** ++ (++ means a Ki(cathepsin L)/Ki(calpain) ratio of ≧50)

**Q.** What about the “Sel cat. S” value [3] of the same compound?
**A.** ++ (++ means a Ki(cathepsin S)/Ki(calpain) ratio of ≧100)

**Q.** And the “Sel cat. K” value [4]?
**A.** + (+ means 10≦Ki(cathepsin K)/Ki(calpain)<30)

**Q.** `NC(=O)C(=O)C(Cc1ccccc1)NC(=O)c1cccnc1-n1ccc(-c2cccc(OCc3ccccc3)c2)n1` (stereo not shown) [Example 96, N-[3-Amino-2,3-dioxo-1-(phenylmethyl)propyl]-2-(3-{3-[(phenylmethyl)oxy]phenyl}-1H-pyrazol-1-yl)pyridine-3-carboxamide] was tested. Which “Sel cat. B” value [1] did it give?
**A.** ++ (++ means a Ki(cathepsin B)/Ki(calpain) ratio of ≧30)

**Q.** And the “Sel cat. L” value [2]?
**A.** ++ (++ means a Ki(cathepsin L)/Ki(calpain) ratio of ≧50)

**Q.** And the “Sel cat. S” value [3]?
**A.** ++ (++ means a Ki(cathepsin S)/Ki(calpain) ratio of ≧100)

**Q.** And the “Sel cat. K” value [4]?
**A.** ++ (++ means a Ki(cathepsin K)/Ki(calpain) ratio of ≧30)

**Q.** What does the source list for `NC(=O)C(=O)C(Cc1ccccc1)NC(=O)c1cccnc1-n1ccc(-c2ccccc2)n1` (stereo not shown) [Example 5, N-(3-Amino-1-benzyl-2,3-dioxopropyl)-2-(3-phenyl-1H-pyrazol-1-yl)nicotinamide]?
**A.** Sel cat. B [1]: + (+ means 10≦Ki(cathepsin B)/Ki(calpain)<30); Sel cat. L [2]: ++ (++ means a Ki(cathepsin L)/Ki(calpain) ratio of ≧50); Sel cat. S [3]: ++ (++ means a Ki(cathepsin S)/Ki(calpain) ratio of ≧100); Sel cat. K [4]: + (+ means 10≦Ki(cathepsin K)/Ki(calpain)<30)

**Q.** For `NC(=O)C(=O)C(Cc1ccc(OCc2ccccc2)cc1)NC(=O)c1cccnc1-n1ccc(-c2ccccc2)n1` (stereo not shown) [Example 127, N-[3-Amino-2,3-dioxo-1-({4-[(phenylmethyl)oxy]phenyl}methyl)propyl]-2-(3-phenyl-1H-pyrazol-1-yl)pyridine-3-carboxamide], which “Sel cat. B” value [1] is on record?
**A.** ++ (++ means a Ki(cathepsin B)/Ki(calpain) ratio of ≧30)

**Q.** What about the “Sel cat. L” value [2] of the same compound?
**A.** ++ (++ means a Ki(cathepsin L)/Ki(calpain) ratio of ≧50)

**Q.** And the “Sel cat. S” value [3]?
**A.** ++ (++ means a Ki(cathepsin S)/Ki(calpain) ratio of ≧100)

**Q.** What about the “Sel cat. K” value [4] of the same compound?
**A.** ++ (++ means a Ki(cathepsin K)/Ki(calpain) ratio of ≧30)

**Q.** `COc1ccc(CC(NC(=O)c2cccnc2-n2ccc(-c3ccc4c(c3)OC(F)(F)O4)n2)C(=O)C(N)=O)cc1` (stereo not shown) [Example 137, N-(3-Amino-1-{[4-(methyloxy)phenyl]methyl}-2,3-dioxopropyl)-2-[3-(2,2-difluoro-1,3-benzodioxol-5-yl)-1H-pyrazol-1-yl]pyridine-3-carboxamide] was tested. Which “Sel cat. B” value [1] did it give?
**A.** + (+ means 10≦Ki(cathepsin B)/Ki(calpain)<30)

**Q.** And the “Sel cat. L” value [2]?
**A.** ++ (++ means a Ki(cathepsin L)/Ki(calpain) ratio of ≧50)

**Q.** And the “Sel cat. S” value [3]?
**A.** ++ (++ means a Ki(cathepsin S)/Ki(calpain) ratio of ≧100)

**Q.** What about the “Sel cat. K” value [4] of the same compound?
**A.** + (+ means 10≦Ki(cathepsin K)/Ki(calpain)<30)

**Q.** With `NC(=O)C(=O)C(Cc1ccccc1)NC(=O)c1cccnc1-n1ccc(-c2ccc(Cl)s2)n1` (stereo not shown) [Example 103, N-[3-Amino-2,3-dioxo-1-(phenylmethyl)propyl]-2-[3-(5-chloro-2-thienyl)-1H-pyrazol-1-yl]pyridine-3-carboxamide] as the compound, how does the “Sel cat. B” value [1] read?
**A.** + (+ means 10≦Ki(cathepsin B)/Ki(calpain)<30)

**Q.** What about the “Sel cat. L” value [2] of the same compound?
**A.** ++ (++ means a Ki(cathepsin L)/Ki(calpain) ratio of ≧50)

**Q.** What about the “Sel cat. S” value [3] of the same compound?
**A.** ++ (++ means a Ki(cathepsin S)/Ki(calpain) ratio of ≧100)

**Q.** And the “Sel cat. K” value [4]?
**A.** + (+ means 10≦Ki(cathepsin K)/Ki(calpain)<30)

**Q.** `NC(=O)C(=O)C(Cc1ccccc1)NC(=O)c1cccnc1-n1ccc(-c2cccc(N3CCOCC3)c2)n1` (stereo not shown) [Example 58, N-(3-Amino-1-benzyl-2,3-dioxopropyl)-2-[3-(3-morpholin-4-ylphenyl)-1H-pyrazol-1-yl]nicotinamide] was tested. Which “Sel cat. B” value [1] did it give?
**A.** + (+ means 10≦Ki(cathepsin B)/Ki(calpain)<30)

**Q.** What about the “Sel cat. L” value [2] of the same compound?
**A.** ++ (++ means a Ki(cathepsin L)/Ki(calpain) ratio of ≧50)

**Q.** And the “Sel cat. S” value [3]?
**A.** ++ (++ means a Ki(cathepsin S)/Ki(calpain) ratio of ≧100)

**Q.** What about the “Sel cat. K” value [4] of the same compound?
**A.** + (+ means 10≦Ki(cathepsin K)/Ki(calpain)<30)

**Q.** For `COc1ccc(CC(NC(=O)c2cccnc2-n2ccc(-c3ccc(F)cc3)n2)C(=O)C(N)=O)cc1` (stereo not shown) [Example 81, N-[3-Amino-1-(4-methoxybenzyl)-2,3-dioxopropyl]-2-[3-(4-fluorophenyl)-1H-pyrazol-1-yl]nicotinamide], which “Sel cat. B” value [1] is on record?
**A.** + (+ means 10≦Ki(cathepsin B)/Ki(calpain)<30)

**Q.** And the “Sel cat. L” value [2]?
**A.** ++ (++ means a Ki(cathepsin L)/Ki(calpain) ratio of ≧50)

**Q.** And the “Sel cat. S” value [3]?
**A.** ++ (++ means a Ki(cathepsin S)/Ki(calpain) ratio of ≧100)

**Q.** And the “Sel cat. K” value [4]?
**A.** + (+ means 10≦Ki(cathepsin K)/Ki(calpain)<30)

**Q.** Which “Sel cat. B” value [1] does the source give for `NC(=O)C(=O)C(Cc1ccccc1)NC(=O)c1cccnc1-n1ccc(-c2cccc3c2OCC3)n1` (stereo not shown) [Example 164, N-[3-Amino-2,3-dioxo-1-(phenylmethyl)propyl]-2-[3-(2,3-dihydro-1-benzofuran-7-yl)-1H-pyrazol-1-yl]pyridine-3-carboxamide] here?
**A.** + (+ means 10≦Ki(cathepsin B)/Ki(calpain)<30)

**Q.** What about the “Sel cat. L” value [2] of the same compound?
**A.** ++ (++ means a Ki(cathepsin L)/Ki(calpain) ratio of ≧50)

**Q.** What about the “Sel cat. S” value [3] of the same compound?
**A.** ++ (++ means a Ki(cathepsin S)/Ki(calpain) ratio of ≧100)

**Q.** What about the “Sel cat. K” value [4] of the same compound?
**A.** ++ (++ means a Ki(cathepsin K)/Ki(calpain) ratio of ≧30)
